Assay results as given in US20050239656A1, “Pyridine compounds or salts thereof and herbicides containing the same” (priority 2002, published 2005).

Key:
corn [1] = assay: Test Example 1: foliage treatment, upland pot test; assay type: in vivo, Zea mays L.; settings: crop, active ingredient 500 g/ha, observed 18th to 23rd day, 0 = non-treated, 100 = complete kill
Procedure, shortened: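 In this upland pot foliage test, corn plants at 2.1 to 3.2 leaf stages were sprayed by a small size sprayer. The spray was a conventionally formulated wettable powder or emulsifiable concentrate weighed to a set active ingredient amount, diluted in water at 500 L/ha, plus 0.1% (v/v) agricultural spreader. Visual assessment on days 18 to 23 gave growth controlling degree (%), where 0 equals untreated and 100 means complete kill.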

prickly sida [2] = assay: Test Example 2: soil surface treatment, upland pot test; assay type: in vivo, Sida spinosa L.; settings: active ingredient 500 g/ha, observed 20th to 28th day
Procedure, shortened: (§1)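 A pre-emergence soil application: formulated compound at a predetermined active-ingredient dose, diluted in water to 1,500 L/ha, sprayed on upland soil a day after seeding in 1/170,000 ha pots; growth control rated visually, 0 (untreated level) to 100 (kill), at 20–28 days.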

redroot pigweed [3] = assay: as above; assay type: in vivo, Amaranthus retroflexus L.; settings: active ingredient 500 g/ha, observed 20th to 28th day
Procedure, shortened: as §1

green foxtail [4] = assay: as above; assay type: in vivo, Setaria viridis L.; settings: active ingredient 500 g/ha, observed 20th to 28th day
Procedure, shortened: as §1

velvetleaf [5] = assay: Test Example 1: foliage treatment, upland pot test; assay type: in vivo, Abutilon theophrasti MEDIC.; settings: active ingredient 500 g/ha, observed 18th to 23rd day, 0 = non-treated, 100 = complete kill
prickly sida [6] = assay: Test Example 1: foliage treatment, upland pot test; assay type: in vivo, Sida spinosa L.; settings: active ingredient 500 g/ha, observed 18th to 23rd day, 0 = non-treated, 100 = complete kill
redroot pigweed [7] = assay: Test Example 1: foliage treatment, upland pot test; assay type: in vivo, Amaranthus retroflexus L.; settings: active ingredient 500 g/ha, observed 18th to 23rd day, 0 = non-treated, 100 = complete kill
japanese bulrush = assay: Test Example 3: paddy pot test, application under submerged conditions; assay type: in vivo, Scirpus juncoides; settings: active ingredient 250 g/ha; submerged application at 0.5 leaf stage; visually observed 14 days after application; 0 = non-treated, 100 = complete kill
Procedure, shortened: (§2)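 Visual rating of growth control (0% equals untreated, 100% complete kill) made 14 days after treatment. Compound, formulated as wettable powder or emulsifiable concentrate and diluted in water, was pipetted under submerged conditions at predetermined active-ingredient doses once weeds reached 0.5-leaf (barnyardgrass, bulrush) or primary-leaf (wapato, from tubers) stage. Pots of greenhouse paddy soil held 3–4 cm flooding.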

soybean [8] = assay: Test Example 2: soil surface treatment, upland pot test; assay type: in vivo, Glycine max Merr.; settings: active ingredient 500 g/ha, observed 20th to 28th day
Procedure, shortened: as §1

crabgrass [9] = assay: as above; assay type: in vivo, Digitaria sanguinalis L.; settings: active ingredient 500 g/ha, observed 20th to 28th day
Procedure, shortened: as §1

rice (var. Nihonbare) = assay: Test Example 3: paddy pot test, transplanted rice; assay type: in vivo, Oryza sativa L.; settings: active ingredient 250 g/ha, applied 4th day after transplantation, visually observed 21st day after application, 0 = non-treated, 100 = complete kill
Procedure, shortened: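 Visual crop-injury rating (0 = as untreated, 100 = complete kill, %) taken 21 days post-application. Treatment: formulated compound, water-diluted, pipetted into 3–4 cm flood water at a preset active-ingredient dose, 4 days after transplanting 2-leaf Nihonbare rice 3 cm deep in puddled paddy soil.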

soybean [10] = assay: Test Example 1: foliage treatment, upland pot test; assay type: in vivo, Glycine max Merr.; settings: crop, active ingredient 500 g/ha, observed 18th to 23rd day, 0 = non-treated, 100 = complete kill
Procedure, shortened: (§3)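 Sow in upland field soil; grow to leaf stage (barnyardgrass 1.3–2.8, soybean 0.1–0.4, wheat 1.3–2.4, rice 1.2–2.6); spray foliage with compound in water, 500 L/ha, spreader 0.1% (v/v); assess visually at 18–23 d, 0 (as untreated) to 100 (full kill).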

rice [11] = assay: Test Example 2: soil surface treatment, upland pot test; assay type: in vivo, Oryza sativa L.; settings: active ingredient 500 g/ha, observed 20th to 28th day
Procedure, shortened: as §1

crabgrass [12] = assay: Test Example 1: foliage treatment, upland pot test; assay type: in vivo, Digitaria sanguinalis L.; settings: active ingredient 500 g/ha, observed 18th to 23rd day, 0 = non-treated, 100 = complete kill
rice [13] = assay: Test Example 1: foliage treatment, upland pot test; assay type: in vivo, Oryza sativa L.; settings: crop, active ingredient 500 g/ha, observed 18th to 23rd day, 0 = non-treated, 100 = complete kill
Procedure, shortened: as §3

barnyardgrass [14] = assay: Test Example 3: paddy pot test, application under submerged conditions; assay type: in vivo, Echinochloa crus-galli L.; settings: active ingredient 250 g/ha; submerged application at 0.5 leaf stage; visually observed 14 days after application; 0 = non-treated, 100 = complete kill
Procedure, shortened: as §2

green foxtail [15] = assay: Test Example 1: foliage treatment, upland pot test; assay type: in vivo, Setaria viridis L.; settings: active ingredient 500 g/ha, observed 18th to 23rd day, 0 = non-treated, 100 = complete kill
corn [16] = assay: Test Example 2: soil surface treatment, upland pot test; assay type: in vivo, Zea mays L.; settings: active ingredient 500 g/ha, observed 20th to 28th day
Procedure, shortened: as §1

barnyardgrass [17] = assay: Test Example 1: foliage treatment, upland pot test; assay type: in vivo, Echinochloa crus-galli L.; settings: active ingredient 500 g/ha, observed 18th to 23rd day, 0 = non-treated, 100 = complete kill
Procedure, shortened: as §3

japanese ribbon wapato = assay: Test Example 3: paddy pot test, application under submerged conditions; assay type: in vivo, Sagittaria pygniaea; settings: active ingredient 250 g/ha; submerged application at primary leaf stage; visually observed 14 days after application; 0 = non-treated, 100 = complete kill
Procedure, shortened: as §2

barnyardgrass [18] = assay: Test Example 2: soil surface treatment, upland pot test; assay type: in vivo, Echinochloa crus-galli L.; settings: active ingredient 500 g/ha, observed 20th to 28th day
Procedure, shortened: as §1

velvetleaf [19] = assay: as above; assay type: in vivo, Abutilon theophrasti MEDIC.; settings: active ingredient 500 g/ha, observed 20th to 28th day
Procedure, shortened: as §1

| Structure (SMILES) | Growth controlling degree (%) Corn (corn [1]) [%] | Growth controlling degree (%) Prickly sida (prickly sida [2]) [%] | Growth controlling degree (%) Redroot pigweed (redroot pigweed [3]) [%] | Growth controlling degree (%) Green foxtail (green foxtail [4]) [%] | Growth controlling degree (%) Velvetleaf (velvetleaf [5]) [%] | Growth controlling degree (%) Prickly sida (prickly sida [6]) [%] | Growth controlling degree (%) Redroot pigweed (redroot pigweed [7]) [%] | Growth controlling degree (%) Japanese bulrush (japanese bulrush) [%] | Growth controlling degree (%) Soyabean (soybean [8]) [%] | Growth controlling degree (%) Crabgrass (crabgrass [9]) [%] | Growth controlling degree (%) Rice (rice (var. Nihonbare)) [%] | Growth controlling degree (%) Soybean (soybean [10]) [%] | Growth controlling degree (%) Rice (rice [11]) [%] | Growth controlling degree (%) Crabgrass (crabgrass [12]) [%] | Growth controlling degree (%) Rice (rice [13]) [%] | Growth controlling degree (%) Barnyardgrass (barnyardgrass [14]) [%] | Growth controlling degree (%) Green foxtail (green foxtail [15]) [%] | Growth controlling degree (%) Corn (corn [16]) [%] | Growth controlling degree (%) Barnyardgrass (barnyardgrass [17]) [%] | Growth controlling degree (%) Japanese ribbon wapato (japanese ribbon wapato) [%] | further results |
| --- | --- | --- | --- | --- | --- | --- | --- | --- | --- | --- | --- | --- | --- | --- | --- | --- | --- | --- | --- | --- | --- |
| Cc1ccccc1CC(=O)N(C)C(c1cnccc1C(F)(F)F)C(C)C (stereo not shown) [I-36] | 35 | 100 | 80 | 98 | 70 | 90 | 80 | 95 | 10 | 98 | 10 | 70 | 30 | 98 | 10 | 100 | 70 | 20 | 95 | 90 | Growth controlling degree (%) Barnyardgrass (barnyardgrass [18]): 100%; Growth controlling degree (%) Velvetleaf (velvetleaf [19]): 50% |
| CC(C)C(c1cnccc1C(F)(F)F)N(C)C(=O)CC1CCCC1 (stereo not shown) [I-165] | 40 | 70 | 80 | 100 | 80 | 80 | 70 | 98 | 20 | 100 | 10 | 80 | 10 | 95 | 10 | 98 | 70 | 20 | 80 | 60 | Growth controlling degree (%) Barnyardgrass (barnyardgrass [18]): 100%; Growth controlling degree (%) Velvetleaf (velvetleaf [19]): 50% |
| CC(C)C(c1cnccc1C(F)(F)F)N(C)C(=O)Cc1ccc(F)c(F)c1 (stereo not shown) [I-60] | 70 | 98 | 80 | 98 | 90 | 70 | 60 | 70 | 10 | 100 | 30 | 35 | 20 | 80 | 50 | 100 | 70 | 10 | 60 | 95 | Growth controlling degree (%) Barnyardgrass (barnyardgrass [18]): 98%; Growth controlling degree (%) Velvetleaf (velvetleaf [19]): 70% |
| CCC(=O)N(C)C(c1cnccc1C(F)(F)F)C(C)C (stereo not shown) [I-163] | 90 | 95 | 70 | 100 | 70 | 80 | 80 | 99 | 40 | 100 | 60 | 80 | 50 | 98 | 80 | 100 | 90 | 60 | 90 | 90 | Growth controlling degree (%) Barnyardgrass (barnyardgrass [18]): 100%; Growth controlling degree (%) Velvetleaf (velvetleaf [19]): 90% |
